Results reported in patent US8993554B2, “Tetrahydroquinoline derivatives useful as bromodomain inhibitors” (GlaxoSmithKline LLC, priority 2011, dated 2015).
Counter-ions that a name gives are not always drawn.

Tested on: LPS induced IL-6 secretion from whole blood
Assay: Measurement of LPS Induced IL-6 Secretion from Whole Blood
Type: cell-based
Settings: IL-6 by immunoassay, LPS 200 ng/ml, 24 hours
Experimental: Activation of monocytic cells by agonists of toll-like receptors such as bacterial lipopolysaccharide (LPS) results in production of key inflammatory mediators including IL-6. Such pathways are widely considered to be central to the pathophysiology of a range of auto-immune and inflammatory disorders.
Compounds to be tested are diluted to give a range of appropriate concentrations of which 1 μl of the diluted stocks is added to a 96 well plate. Following addition of whole blood (130 μl) the plates are incubated at 37 degrees (5% CO2) for 30 min before the addition of 10 μl of 2.8 ug/ml LPS, diluted in complete RPMI 1640 (final concentration=200 ng/ml), to give a total volume of 140 μl per well. After further incubation for 24 hours at 37 degrees, 140 μl of PBS are added to each well. The plates are sealed, shaken for 10 minutes and then centrifuged (2500 rpm×10 min). 100 μl of the supernatant are removed and IL-6 levels assayed by immunoassay (typically by MesoScale Discovery technology) either immediately or following storage at −20 degrees. Concentration response curves for each compound was generated from the data and an IC50 value was calculated.

Row | IC50 [µM] | SMILES
1 | 0.0501 to 3.16 | CC(=O)N1c2ccc(-c3ccc(C(=O)NC(CO)CO)nc3)cc2[C@H](Nc2ccc(C#N)cn2)C[C@@H]1C [Example 30, 5-((2S,4R)-1-acetyl-4-((5-cyanopyridin-2-yl)amino)-2-methyl-1,2,3,4tetrahydroquinolin-6-yl)-N-(1,3-dihydroxypropan-2-yl)picolinamide]
2 | 0.0501 to 3.16 | CC(=O)N1c2ccc(-c3ccc(C(=O)NCCCO)nc3)cc2[C@H](Nc2ccc(C#N)cn2)C[C@@H]1C [Example 31, 5-((2S,4R)-1-acetyl-4-((5-cyanopyridin-2-yl)amino)-2-methyl-1,2,3,4-tetrahydroquinolin-6-yl)-N-(3-hydroxypropyl)picolinamide]
3 | 0.0501 to 3.16 | CC(=O)N1c2ccc(-c3ccc(C(=O)N[C@H](C)CO)nc3)cc2[C@H](Nc2ccc(C#N)cn2)C[C@@H]1C [Example 32, 5-((2S,4R)-1-acetyl-4-((5-cyanopyridin-2-yl)amino)-2-methyl-1,2,3,4-tetrahydroquinolin-6-yl)-N—((R)-1-hydroxypropan-2-yl)picolinamide]
4 | 0.0501 to 3.16 | CC(=O)N1c2ccc(-c3ccc(C(=O)N4CCN(C)CC4)nc3)cc2[C@H](Nc2ccc(C#N)cn2)C[C@@H]1C [Example 34, 6-(((2S,4R)-1-acetyl-2-methyl-6-(6-(4-methylpiperazine-1-carbonyl)pyridin-3-yl)-1,2,3,4-tetrahydroquinolin-4-yl)amino)nicotinonitrile]
5 | 0.0501 to 3.16 | CC(=O)N1c2ccc(-c3ccc(C(=O)N4CC(N)C4)nc3)cc2[C@H](Nc2ccc(C#N)cn2)C[C@@H]1C [Example 37, 6-(((2S,4R)-1-acetyl-6-(6-(3-aminoazetidine-1-carbonyl)pyridin-3-yl)-2-methyl-1,2,3,4-tetrahydroquinolin-4-yl)amino)nicotinonitrile]
6 | 0.0501 to 3.16 | CC(=O)N1c2ccc(-c3ccc(C(=O)NCCN(C)C)cc3)cc2[C@H](Nc2ccc(Cl)cc2)C[C@@H]1C [Example 38, 4-((2S,4R)-1-acetyl-4-((4-chlorophenyl)amino)-2-methyl-1,2,3,4-tetrahydroquinolin-6-yl)-N-(2-(dimethylamino)ethyl)benzamide]
7 | 0.0501 to 3.16 | CC(=O)N1c2ccc(-c3ccc(C(=O)NCCO)cc3)cc2[C@H](Nc2ccc(Cl)cc2)C[C@@H]1C [Example 40, 4-((2S,4R)-1-acetyl-4-((4-chlorophenyl)amino)-2-methyl-1,2,3,4-tetrahydroquinolin-6-yl)-N-(2-hydroxyethyl)benzamide]
8 | 0.0501 to 3.16 | CC(=O)N1c2ccc(-c3ccc(C(=O)NC[C@H](C)O)cc3)cc2[C@H](Nc2ccc(Cl)cc2)C[C@@H]1C [Example 42, 4-((2S,4R)-1-acetyl-4-((4-chlorophenyl)amino)-2-methyl-1,2,3,4-tetrahydroquinolin-6-yl)-N—((S)-2-hydroxypropyl)benzamide]
9 | 0.0501 to 3.16 | CC(=O)N1c2ccc(-c3ccc(C(=O)NCCN)cc3)cc2[C@H](Nc2ccc(Cl)cc2)C[C@@H]1C [Example 44, 4-((2S,4R)-1-acetyl-4-((4-chlorophenyl)amino)-2-methyl-1,2,3,4-tetrahydroquinolin-6-yl)-N-(2-aminoethyl)benzamide]
10 | 0.0501 to 3.16 | CC(=O)N1c2ccc(-c3ccc(C(=O)NCCN(C)C)cc3)cc2[C@H](Nc2ccccc2)C[C@@H]1C [Example 45, 4-((2S,4R)-1-acetyl-2-methyl-4-(phenylamino)-1,2,3,4-tetrahydroquinolin-6-yl)-N-(2-(dimethylamino)ethyl)benzamide]
11 | 0.0501 to 3.16 | CC(=O)N1c2ccc(-c3ccc(C(=O)NCCO)cc3)cc2[C@H](Nc2ccccc2)C[C@@H]1C [Example 46, 4-((2S,4R)-1-acetyl-2-methyl-4-(phenylamino)-1,2,3,4-tetrahydroquinolin-6-yl)-N-(2-hydroxyethyl)benzamide]
12 | 0.0501 to 3.16 | CC(=O)N1c2ccc(-c3ccc(C(=O)N4CCNCC4)nc3)cc2[C@H](Nc2ccc(C#N)cn2)C[C@@H]1C [Example 48, 6-(((2S,4R)-1-acetyl-2-methyl-6-(6-(piperazine-1-carbonyl)pyridin-3-yl)-1,2,3,4-tetrahydroquinolin-4-yl)amino)nicotinonitrile]
13 | 0.0501 to 3.16 | CC(=O)N1c2ccc(-c3ccc(C(=O)NCCO)nc3)cc2[C@H](Nc2cnc(C#N)cn2)C[C@@H]1C [Example 49, 5-((2S,4R)-1-acetyl-4-((5-cyanopyrazin-2-yl)amino)-2-methyl-1,2,3,4-tetrahydroquinolin-6-yl)-N-(2-hydroxyethyl)picolinamide]
14 | 0.0501 to 3.16 | CC(=O)N1c2ccc(-c3ccc(C(=O)N4CCOCC4)nc3)cc2[C@H](Nc2ccc(C)cn2)C[C@@H]1C [Example 51, 1-((2S,4R)-2-methyl-4-((5-methylpyridin-2-yl)amino)-6-(6-(morpholine-4-carbonyl)pyridin-3-yl)-3,4-dihydroquinolin-1(2H)-yl)ethanone]
15 | 0.0501 to 3.16 | CC(=O)N1c2ccc(-c3ccc(C(=O)N4CCOCC4)nc3)cc2[C@H](Nc2ccc(Cl)cn2)C[C@@H]1C [Example 52, 1-((2S,4R)-4-((5-chloropyridin-2-yl)amino)-2-methyl-6-(6-(morpholine-4-carbonyl)pyridin-3-yl)-3,4-dihydroquinolin-1(2H)-yl)ethanone]
16 | 0.0501 to 3.16 | CC(=O)N1c2ccc(-c3ccc(C(=O)N4CCOCC4)nc3)cc2[C@H](Nc2cnc(C)cn2)C[C@@H]1C [Example 54, 1-((2S,4R)-2-methyl-4-((5-methylpyrazin-2-yl)amino)-6-(6-(morpholine-4-carbonyl)pyridin-3-yl)-3,4-dihydroquinolin-1(2H)-yl)ethanone]
17 | 0.0501 to 3.16 | CC(=O)N1c2ccc(-c3ccc(C(=O)N4CCOCC4)cc3)cc2[C@H](Nc2ccc(C)cn2)C[C@@H]1C [Example 56, 1-((2S,4R)-2-methyl-4-((5-methylpyridin-2-yl)amino)-6-(4-(morpholine-4-carbonyl)phenyl)-3,4-dihydroquinolin-1(2H)-yl)ethanone formate]
18 | 0.0501 to 3.16 | CC(=O)N1c2ccc(-c3ccc(C(=O)N4CCOCC4)cn3)cc2[C@H](Nc2ccc(Cl)cn2)C[C@@H]1C [Example 57, 1-((2S,4R)-4-((5-chloropyridin-2-yl)amino)-2-methyl-6-(5-(morpholine-4-carbonyl)pyridin-2-yl)-3,4-dihydroquinolin-1(2H)-yl)ethanone]
19 | 0.0501 to 3.16 | CC(=O)N1c2ccc(-c3ccc(C(=O)N4CCOCC4)cn3)cc2[C@H](Nc2cnccn2)C[C@@H]1C [Example 58, 1-((2S,4R)-2-methyl-6-(5-(morpholine-4-carbonyl)pyridin-2-yl)-4-(pyrazin-2-ylamino)-3,4-dihydroquinolin-1(2H)-yl)ethanone]
20 | 0.0501 to 3.16 | CC(=O)N1c2ccc(-c3ccc(C(=O)N4CCOCC4)cn3)cc2[C@H](Nc2ccc(C)cn2)C[C@@H]1C [Example 59, 1-((2S,4R)-2-methyl-4-((5-methylpyridin-2-yl)amino)-6-(5-(morpholine-4-carbonyl)pyridin-2-yl)-3,4-dihydroquinolin-1(2H)-yl)ethanone]
21 | 0.0501 to 3.16 | CC(=O)N1c2ccc(-c3ccc(C(=O)N4CCOCC4)cn3)cc2[C@H](Nc2cnc(C)cn2)C[C@@H]1C [Example 60, 1-((2S,4R)-2-methyl-4-((5-methylpyrazin-2-yl)amino)-6-(5-(morpholine-4-carbonyl)pyridin-2-yl)-3,4-dihydroquinolin-1(2H)-yl)ethanone]
22 | 0.0501 to 3.16 | CC(=O)N1c2ccc(-c3ccc(C(=O)N4CCOCC4)cn3)cc2[C@H](Nc2ccccn2)C[C@@H]1C [Example 61, 1-((2S,4R)-2-methyl-6-(5-(morpholine-4-carbonyl)pyridin-2-yl)-4-(pyridin-2-ylamino)-3,4-dihydroquinolin-1(2H)-yl)ethanone]
23 | 0.0501 to 3.16 | CC(=O)N1c2ccc(-c3ccc(C(=O)N4CCOCC4)nc3)cc2[C@H](Nc2cccc(Cl)c2)C[C@@H]1C [Example 62]
24 | 0.0501 to 3.16 | CC(=O)N1c2ccc(-c3ccc(C(=O)N4CCOCC4)cn3)cc2[C@H](Nc2cccc(Cl)c2)C[C@@H]1C [Example 63]
25 | 0.0501 to 3.16 | CC(=O)N1c2ccc(-c3ccc(C(=O)N4CCOCC4)cn3)cc2[C@H](Nc2ccc(Cl)cc2)C[C@@H]1C [Example 64, 1-((2S,4R)-4-((4-chlorophenyl)amino)-2-methyl-6-(5-(morpholine-4-carbonyl)pyridin-2-yl)-3,4-dihydroquinolin-1(2H)-yl)ethanone]
26 | 0.0501 to 3.16 | CC(=O)N1c2ccc(-c3ccc(C(=O)N4CCOCC4)cc3)cc2[C@H](Nc2ccc(C#N)cn2)C[C@@H]1C [Example 65, 6-(((2S,4R)-1-acetyl-2-methyl-6-(4-(morpholine-4-carbonyl)phenyl)-1,2,3,4-tetrahydroquinolin-4-yl)amino)nicotinonitrile]
27 | 0.0501 to 3.16 | CC(=O)N1c2ccc(-c3ccc(C(=O)N4CCCC4)cc3)cc2[C@H](Nc2ccc(C)cn2)C[C@@H]1C [Example 68, 1-((2S,4R)-2-methyl-4-((5-methylpyridin-2-yl)amino)-6-(4-(pyrrolidine-1-carbonyl)phenyl)-3,4-dihydroquinolin-1(2H)-yl)ethanone formate]
